Assay results reported in PubChem BioAssay AID2060900 (Molecular Pharmacology Branch, DTP, NCI, 2025).

Test system: 521955-158-R2-J5-PDC complex spheroids, viability
Experiment: Anticancer human tumor 521955-158-R2-J5-PDC patient-derived pancreatic carcinoma cell line growth inhibition [RAS]
Settings: for IC50: curve of first compound; for viability, T/C: stronger effect = lower value
How it was run: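 Multi-cell-type spheroids: tumor cells plus HUVEC endothelial cells and mesenchymal stem cells. RAS-pathway inhibitors were combined with targeted agents, each dosed in half-log steps down from clinical Cmax, or from 10 microM when Cmax was unknown.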

[1] = second compound 0.000949 µM, first compound 0.0316 µM
[2] = second compound 0.000949 µM, first compound 0.1 µM
[3] = second compound 0.000949 µM, first compound 0.316 µM
[4] = second compound 0.000949 µM, first compound 1 µM
[5] = second compound 0.000949 µM, first compound 3.16 µM
[6] = second compound 0.000949 µM, first compound 10 µM
[7] = second compound 0.003 µM, first compound 0.0316 µM
[8] = second compound 0.003 µM, first compound 0.1 µM
[9] = second compound 0.003 µM, first compound 0.316 µM
[10] = second compound 0.003 µM, first compound 1 µM
[11] = second compound 0.003 µM, first compound 3.16 µM
[12] = second compound 0.003 µM, first compound 10 µM
[13] = second compound 0.00949 µM, first compound 0.0316 µM
[14] = second compound 0.00949 µM, first compound 0.1 µM
[15] = second compound 0.00949 µM, first compound 0.316 µM
[16] = second compound 0.00949 µM, first compound 1 µM
[17] = second compound 0.00949 µM, first compound 3.16 µM
[18] = second compound 0.00949 µM, first compound 10 µM
[19] = second compound 0.03 µM, first compound 0.0316 µM
[20] = second compound 0.03 µM, first compound 0.1 µM
[21] = second compound 0.03 µM, first compound 0.316 µM
[22] = second compound 0.03 µM, first compound 1 µM
[23] = second compound 0.03 µM, first compound 3.16 µM
[24] = second compound 0.03 µM, first compound 10 µM
[25] = second compound 0.0949 µM, first compound 0.0316 µM
[26] = second compound 0.0949 µM, first compound 0.1 µM
[27] = second compound 0.0949 µM, first compound 0.316 µM
[28] = second compound 0.0949 µM, first compound 1 µM
[29] = second compound 0.0949 µM, first compound 3.16 µM
[30] = second compound 0.0949 µM, first compound 10 µM
[31] = second compound 0.3 µM, first compound 0.0316 µM
[32] = second compound 0.3 µM, first compound 0.1 µM
[33] = second compound 0.3 µM, first compound 0.316 µM
[34] = second compound 0.3 µM, first compound 1 µM
[35] = second compound 0.3 µM, first compound 3.16 µM
[36] = second compound 0.3 µM, first compound 10 µM
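Also: compound exposure lasted seven days before the viability read.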
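For viability, T/C in this document: spheroids also contain HUVEC endothelial cells and mesenchymal stem cells as stroma.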

CC(Nc1ccc2c(c1)OCCn1cc(N3C(=O)OCC3C(F)F)nc1-2)C(N)=O (stereo unspecified) + CCn1c(-c2cccnc2C(C)OC)c2c3cc(ccc31)N1CCOC(CC(NC(=O)C(C(C)C)N(C)C(=O)C3(F)CCN(C(=O)C#CC(C)(C)N(C)C)CC3)C(=O)N3CCCC(N3)C(=O)OCC(C)(C)C2)C1
IC50 (second compound 0.000949 µM): 131 nM
IC50 (second compound 0.003 µM): < 31.6 nM
IC50 (second compound 0.00949 µM): < 31.6 nM
IC50 (second compound 0.03 µM): < 31.6 nM
IC50 (second compound 0.0949 µM): < 31.6 nM
IC50 (second compound 0.3 µM): < 31.6 nM
viability, T/C [1]: 63.1%
viability, T/C [2]: 46.7%
viability, T/C [3]: 34.7%
viability, T/C [4]: 27%
viability, T/C [5]: 83.6%
viability, T/C [6]: 17.9%
viability, T/C [7]: 59.7%
viability, T/C [8]: 36.6%
viability, T/C [9]: 32.3%
viability, T/C [10]: 23.8%
viability, T/C [11]: 93.3%
viability, T/C [12]: 16.3%
viability, T/C [13]: 41.8%
viability, T/C [14]: 46.3%
viability, T/C [15]: 31.9%
viability, T/C [16]: 26.3%
viability, T/C [17]: 108%
viability, T/C [18]: 15.6%
viability, T/C [19]: 49.8%
viability, T/C [20]: 44.2%
viability, T/C [21]: 33.9%
viability, T/C [22]: 30.8%
viability, T/C [23]: 70.1%
viability, T/C [24]: 13.9%
viability, T/C [25]: 39.1%
viability, T/C [26]: 33.6%
viability, T/C [27]: 28%
viability, T/C [28]: 22.4%
viability, T/C [29]: 74.8%
viability, T/C [30]: 13.6%
viability, T/C [31]: 39.1%
viability, T/C [32]: 32.6%
viability, T/C [33]: 27.3%
viability, T/C [34]: 24.9%
viability, T/C [35]: 53.5%
viability, T/C [36]: 12.8%

CC1(O)CCCC1n1c(=O)c(C(F)F)cc2cnc(NC3CCN(S(C)(=O)=O)CC3)nc21 (stereo unspecified) + CCn1c(-c2cccnc2C(C)OC)c2c3cc(ccc31)N1CCOC(CC(NC(=O)C(C(C)C)N(C)C(=O)C3(F)CCN(C(=O)C#CC(C)(C)N(C)C)CC3)C(=O)N3CCCC(N3)C(=O)OCC(C)(C)C2)C1
IC50 (second compound 0.000949 µM): 4900 nM
IC50 (second compound 0.003 µM): 5090 nM
IC50 (second compound 0.00949 µM): 4910 nM
IC50 (second compound 0.03 µM): 4990 nM
IC50 (second compound 0.0949 µM): 4430 nM
IC50 (second compound 0.3 µM): 3760 nM
viability, T/C [1]: 68.5%
viability, T/C [2]: 66.1%
viability, T/C [3]: 61.6%
viability, T/C [4]: 59.4%
viability, T/C [5]: 103%
viability, T/C [6]: 14.8%
viability, T/C [7]: 89.5%
viability, T/C [8]: 67.8%
viability, T/C [9]: 49.5%
viability, T/C [10]: 82.7%
viability, T/C [11]: 89.2%
viability, T/C [12]: 13.5%
viability, T/C [13]: 88.1%
viability, T/C [14]: 71.1%
viability, T/C [15]: 60.2%
viability, T/C [16]: 62.1%
viability, T/C [17]: 93.5%
viability, T/C [18]: 9.48%
viability, T/C [19]: 89.7%
viability, T/C [20]: 77.1%
viability, T/C [21]: 47.7%
viability, T/C [22]: 76.1%
viability, T/C [23]: 78.9%
viability, T/C [24]: 13.6%
viability, T/C [25]: 67.6%
viability, T/C [26]: 61.1%
viability, T/C [27]: 47.3%
viability, T/C [28]: 63.1%
viability, T/C [29]: 90.5%
viability, T/C [30]: 11.6%
viability, T/C [31]: 60.8%
viability, T/C [32]: 37.9%
viability, T/C [33]: 45.5%
viability, T/C [34]: 58%
viability, T/C [35]: 88.2%
viability, T/C [36]: 9.67%

CCC(CC)c1cc(NC2CCC(N)C2)n2nccc2n1 (stereo unspecified) + C=CC(=O)N1CCN(c2nc(OCC3CCCN3C)nc3c(F)c(-c4nc(N)cc(C)c4C(F)(F)F)c(Cl)cc23)C(C)C1
IC50 (second compound 0.00316 µM): 1950 nM
IC50 (second compound 0.01 µM): 2100 nM
IC50 (second compound 0.0316 µM): 2110 nM
IC50 (second compound 0.1 µM): 2090 nM
IC50 (second compound 0.316 µM): 2140 nM
IC50 (second compound 1 µM): 2010 nM
viability, T/C (second compound 0.00316 µM, first compound 0.0316 µM): 95.8%
viability, T/C (second compound 0.00316 µM, first compound 0.1 µM): 118%
viability, T/C (second compound 0.00316 µM, first compound 0.316 µM): 122%
viability, T/C (second compound 0.00316 µM, first compound 1 µM): 107%
viability, T/C (second compound 0.00316 µM, first compound 3.16 µM): 7.09%
viability, T/C (second compound 0.00316 µM, first compound 10 µM): 10.1%
viability, T/C (second compound 0.01 µM, first compound 0.0316 µM): 104%
viability, T/C (second compound 0.01 µM, first compound 0.1 µM): 127%
viability, T/C (second compound 0.01 µM, first compound 0.316 µM): 126%
viability, T/C (second compound 0.01 µM, first compound 1 µM): 128%
viability, T/C (second compound 0.01 µM, first compound 3.16 µM): 8.44%
viability, T/C (second compound 0.01 µM, first compound 10 µM): 12.1%
viability, T/C (second compound 0.0316 µM, first compound 0.0316 µM): 99.1%
viability, T/C (second compound 0.0316 µM, first compound 0.1 µM): 127%
viability, T/C (second compound 0.0316 µM, first compound 0.316 µM): 122%
viability, T/C (second compound 0.0316 µM, first compound 1 µM): 152%
viability, T/C (second compound 0.0316 µM, first compound 3.16 µM): 9.15%
viability, T/C (second compound 0.0316 µM, first compound 10 µM): 9.78%
viability, T/C (second compound 0.1 µM, first compound 0.0316 µM): 139%
viability, T/C (second compound 0.1 µM, first compound 0.1 µM): 106%
viability, T/C (second compound 0.1 µM, first compound 0.316 µM): 142%
viability, T/C (second compound 0.1 µM, first compound 1 µM): 120%
viability, T/C (second compound 0.1 µM, first compound 3.16 µM): 10.2%
viability, T/C (second compound 0.1 µM, first compound 10 µM): 9.75%
viability, T/C (second compound 0.316 µM, first compound 0.0316 µM): 145%
viability, T/C (second compound 0.316 µM, first compound 0.1 µM): 105%
viability, T/C (second compound 0.316 µM, first compound 0.316 µM): 119%
viability, T/C (second compound 0.316 µM, first compound 1 µM): 133%
viability, T/C (second compound 0.316 µM, first compound 3.16 µM): 11.5%
viability, T/C (second compound 0.316 µM, first compound 10 µM): 9.87%
viability, T/C (second compound 1 µM, first compound 0.0316 µM): 102%
viability, T/C (second compound 1 µM, first compound 0.1 µM): 107%
viability, T/C (second compound 1 µM, first compound 0.316 µM): 125%
viability, T/C (second compound 1 µM, first compound 1 µM): 110%
viability, T/C (second compound 1 µM, first compound 3.16 µM): 10.1%
viability, T/C (second compound 1 µM, first compound 10 µM): 13%
